In patent publication US10745382B2 (BRISTOL-MYERS SQUIBB COMPANY, priority 2015, dated 2020):
Like-named read-outs stand apart in the source and are kept apart here.

Biological target: T1, PD-1/PD-L1 (Homo sapiens, UniProt Q9NZQ7)
T1 construct: made in house; host or cells: HEK293T
Assay: PD-1/PD-L1 Homogenous Time-Resolved Fluorescence (HTRF) binding assay
Conditions: PD-L1-His 10 nM, PD-1-Ig 20 nM, read-out: Range or IC50
Outline: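 dPBS + 0.1% BSA + 0.05% Tween-20 buffer; Eu-cryptate anti-Ig 1 nM final, APC anti-His 20 nM final; HTRF read. Counter-assays: PD-1-Ig/PD-L2-His 20 & 5 nM, CD80-His/PD-L1-Ig 100 & 10 nM.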

T1 sequence (Q9NZQ7 with tags, fused parts or gaps): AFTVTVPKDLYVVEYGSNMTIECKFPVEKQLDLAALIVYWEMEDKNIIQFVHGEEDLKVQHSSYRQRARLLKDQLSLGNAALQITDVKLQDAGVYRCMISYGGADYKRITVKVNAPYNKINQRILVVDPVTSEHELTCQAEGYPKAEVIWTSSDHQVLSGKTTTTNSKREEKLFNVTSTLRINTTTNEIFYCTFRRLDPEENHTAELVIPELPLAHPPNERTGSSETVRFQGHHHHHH

Row | IC50 (value given as range class) [nM] | IC50 (numeric IC50) [nM] | Compound
1 | 100 to 2000 | – | CNC(=O)c1cccc(-c2cccc(COc3cc(OCc4cc(F)cc(F)c4)c(CN4CCCC[C@H]4C(=O)O)cc3Cl)c2C)c1C [Example 4023, (S)-1-(5-chloro-2-((3,5-difluorobenzyl)oxy)-4-((2,2′-dimethyl-3′-(methylcarbamoyl)-[1,1′-biphenyl]-3-yl)methoxy)benzyl)piperidine-2-carboxylic Acid]
2 | 0.21 to 10 | – | Cc1c(COc2cc(OCc3cncc(C#N)c3)c(CN3CCCC[C@H]3C(=O)O)cc2Cl)cccc1-c1cccc(OCCCN2CCCCC2C(N)=O)c1C (stereo partly drawn) [Example 2244, (2S)-1-(4-((3′-(3-(2-carbamoylpiperidin-1-yl)propoxy)-2,2′-dimethylbiphenyl-3-yl)methoxy)-5-chloro-2-((5-cyanopyridin-3-yl)methoxy)benzyl)piperidine-2-carboxylic Acid]
3 | 0.21 to 10 | – | Cc1c(COc2cc(OCc3cncc(C#N)c3)c(CN(C)[C@@](C)(CO)C(=O)O)c(C)c2Cl)cccc1-c1cccc(OCCCN2CC[C@@H](O)C2)c1C [Example 4100, (S)-2-((3-chloro-6-((5-cyanopyridin-3-yl)methoxy)-4-((3′-(3-((R)-3-hydroxypyrrolidin-1-yl)propoxy)-2,2′-dimethyl-[1,1′-biphenyl]-3-yl)methoxy)-2-methylbenzyl)(methyl)amino)-3-hydroxy-2-methylpropanoic Acid]
4 | 10 to 100 | – | Cc1c(COc2cc(OCc3ccc(F)c(F)c3)c(CNC(C)(CO)CO)cc2Cl)cccc1-c1cccc(OCCCN2CC[C@@H](O)C2)c1C [Example 4510, (R)-2-((5-chloro-2-((3,4-difluorobenzyl)oxy)-4-((3′-(3-(3-hydroxypyrrolidin-1-yl)propoxy)-2,2′-dimethyl-[1,1′-biphenyl]-3-yl)methoxy)benzyl)amino)-2-methylpropane-1,3-diol]
5 | 0.21 to 10 | – | Cc1c(COc2cc(OCc3cncc(C#N)c3)c(CN[C@](C)(CO)C(=O)O)cc2Cl)cccc1-c1cccc(OCCCN2CCC(O)C2)c1C (stereo in doubt) [Example 3005, (R)-2-((5-chloro-2-((5-cyanopyridin-3-yl)methoxy)-4-((3′-(3-((R)-3-hydroxypyrrolidin-1-yl)propoxy)-2,2′-dimethyl-[1,1′-biphenyl]-3-yl)methoxy)benzyl)amino)-3-hydroxy-2-methylpropanoic Acid]
6 | 0.21 to 10 | – | Cc1c(COc2cc(OCc3cncc(C#N)c3)c(CN[C@](C)(CO)C(=O)O)cc2Cl)cccc1-c1cccc(OCCCN2C[C@H](O)C[C@H]2C(N)=O)c1Cl [Example 1086, (R)-2-((4-((3′-(3-((2S,4R)-2-carbamoyl-4-hydroxypyrrolidin-1-yl)propoxy)-2′-chloro-2-methyl-[1,1′-biphenyl]-3-yl)methoxy)-5-chloro-2-((5-cyanopyridin-3-yl)methoxy)benzyl)amino)-3-hydroxy-2-methylpropanoic Acid]
7 | 0.21 to 10 | – | Cc1c(OCCCN2CC[C@@H](O)C2)cccc1-c1cccc(COc2cc(OCc3cncc(C#N)c3)c(CN[C@H](CO)C(=O)O)cc2Cl)c1 [Example 3016, (R)-2-((5-chloro-2-((5-cyanopyridin-3-yl)methoxy)-4-((3′-(3-((R)-3-hydroxypyrrolidin-1-yl)propoxy)-2′-methyl-[1,1′-biphenyl]-3-yl)methoxy)benzyl)amino)-3-hydroxypropanoic Acid]
8 | 0.21 to 10 | – | Cc1c(COc2cc(OCc3cncc(C#N)c3)c(CNCCc3ccncc3)cc2Cl)cccc1-c1cccc(OCCCNCCc2ccncc2)c1Cl [Example 2010, 5-((4-chloro-5-((2′-chloro-2-methyl-3′-(3-((2-(pyridin-4-yl)ethyl)amino)propoxy)-[1,1′-biphenyl]-3-yl)methoxy)-2-(((2-(pyridin-4-yl)ethyl)amino)methyl)phenoxy)methyl)nicotinonitrile]
9 | 0.21 to 10 | – | Cc1c(COc2cc(OCc3cc(F)cc(F)c3)c(CN3CCCC[C@H]3C(=O)O)cc2Cl)cccc1-c1cccc(OCCCN2CC[C@@H](O)C2)c1C [Example 4521, (S)-1-(5-chloro-2-((3,5-difluorobenzyl)oxy)-4-((3′-(3-((R)-3-hydroxypyrrolidin-1-yl)propoxy)-2,2′-dimethyl-[1,1′-biphenyl]-3-yl)methoxy)benzyl)piperidine-2-carboxylic Acid]
10 | – | 3 | Cc1c(COc2cc(OCc3cncc(C#N)c3)c(CN[C@@H](CO)C(=O)O)cc2Cl)cccc1-c1ccc2c(c1C)OCCO2 [Example 3043, (2S)-2-((5-chloro-2-((5-cyanopyridin-3-yl)methoxy)-4-((2-methyl-3-(5-methyl-2,3-dihydrobenzo[b][1,4]dioxin-6-yl)benzyl)oxy)benzyl)amino)-3-hydroxypropanoic Acid]
11 | 0.21 to 10 | – | Cc1c(COc2cc(OCc3cncc(C#N)c3)c(CN3CCCC[C@H]3C(=O)O)cc2Cl)cccc1-c1cccc(OCCCN2CCC[C@@H](O)C2)c1 [Example 1018, (S)-1-(5-chloro-2-((5-cyanopyridin-3-yl)methoxy)-4-((3′-(3-((R)-3-hydroxypiperidin-1-yl)propoxy)-2-methyl-[1,1′-biphenyl]-3-yl)methoxy)benzyl)piperidine-2-carboxylic Acid]
12 | 0.21 to 10 | – | Cc1c(COc2cc(OCc3cncc(C#N)c3)c(CN3CCCC[C@H]3C(=O)O)c(C)c2Cl)cccc1-c1cccc(OCCCN2CC[C@@H](O)C2)c1C [Example 4101, (S)-1-(3-chloro-6-((5-cyanopyridin-3-yl)methoxy)-4-((3′-(3-((R)-3-hydroxypyrrolidin-1-yl)propoxy)-2,2′-dimethyl-[1,1′-biphenyl]-3-yl)methoxy)-2-methylbenzyl)piperidine-2-carboxylic Acid]
13 | 10 to 100 | – | Cc1c(COc2cc(O)c(CO)cc2Cl)cccc1-c1cccc(OCCCN2CCCCC2)c1Cl [Example 2017, 4-chloro-5-((2′-chloro-2-methyl-3′-(3-(piperidin-1-yl)propoxy)-[1,1′-biphenyl]-3-yl)methoxy)-2-(hydroxymethyl)phenol]
14 | 0.21 to 10 | – | CCOC(=O)C1(CO)CCN(CCCOc2cccc(-c3cccc(COc4cc(OCc5cncc(C#N)c5)c(CN[C@](C)(CO)C(=O)O)cc4Cl)c3C)c2Cl)C1 (stereo partly drawn) [Example 1103, (2R)-2-((5-chloro-4-((2′-chloro-3′-(3-(3-(ethoxycarbonyl)-3-(hydroxymethyl)pyrrolidin-1-yl)propoxy)-2-methyl-[1,1′-biphenyl]-3-yl)methoxy)-2-((5-cyanopyridin-3-yl)methoxy)benzyl)amino)-3-hydroxy-2-methylpropanoic Acid]
15 | 0.21 to 10 | – | Cc1c(OCCCN2CC[C@@H](O)C2)cccc1-c1cccc(COc2cc(OCC(=N)N3CC[C@@H](O)C3)c(CNC(CO)CO)cc2Cl)c1Cl [Example 2315, 2-((5-chloro-4-((2-chloro-3′-(3-((R)-3-hydroxypyrrolidin-1-yl)propoxy)-2′-methyl-[1,1′-biphenyl]-3-yl)methoxy)-2-(2-((R)-3-hydroxypyrrolidin-1-yl)-2-iminoethoxy)benzyl)amino)propane-1,3-diol]
16 | 0.21 to 10 | – | N#Cc1cncc(COc2cc(OCc3cccc(-c4cccc(OCCCNC[C@H](O)CO)c4Cl)c3Cl)c(Cl)cc2CNC[C@H](O)CO)c1 [Example 2033, 5-((4-chloro-5-((2,2′-dichloro-3′-(3-(((S)-2,3-dihydroxypropyl)amino)propoxy)-[1,1′-biphenyl]-3-yl)methoxy)-2-((((S)-2,3-dihydroxypropyl)amino)methyl)phenoxy)methyl)nicotinonitrile]
17 | 0.21 to 10 | – | Cc1c(COc2cc(OCc3cncc(C#N)c3)c(CN(CCO)CCCO)cc2Cl)cccc1-c1cccc(OCCCN2CCC(F)(F)C2)c1C [Example 4113]
